Experimental data published in ChEMBL document CHEMBL6078649, “Discovery of Chalcone Derivatives as Bifunctional Molecules with Anti-SARS-CoV-2 and Anti-inflammatory Activities” (J Nat Prod, 2024).

Columns and labels:
[1] = Cytotoxicity against mouse RAW264.7 cells assessed as cell viability at 10 uM incubated for 24 hrs by CCK8 assay relative to control; format: toxicity, cell-based; conditions: read-out: Activity
RAW264.7 [2] = assay: Anti-inflammatory activity against mouse RAW264.7 cells assessed as inhibition of LPS-induced NO production at 1 uM preincubated for 1 hr followed by LPS treatment measured after 24 hrs relative to control; format: functional; conditions: time 25 hrs
[3] = biological target: Replicase polyprotein 1ab (Severe acute respiratory syndrome coronavirus 2) (UniProt P0DTD1); assay: Inhibition of SARS-CoV-2 3CLPro using DabcylKNSTLQSGLRK-Edans as substrate at 5 uM preincubated for 30 mins followed by substrate addition measured after 20 mins by FRET assay relative to control; conditions: time 50.0 min
[4] = biological target: Replicase polyprotein 1ab (Severe acute respiratory syndrome coronavirus 2, UniProt P0DTD1)
[5] = biological target: Replicase polyprotein 1ab (Severe acute respiratory syndrome coronavirus 2) (UniProt P0DTD1); assay: Inhibition of SARS-CoV-2 3CLPro using DabcylKNSTLQSGLRK-Edans as substrate at 50 uM preincubated for 30 mins followed by substrate addition measured after 20 mins by FRET assay relative to control; conditions: time 50.0 min
RAW264.7 [6] = assay: Anti-inflammatory activity against mouse RAW264.7 cells assessed as inhibition of LPS-induced NO production at 10 uM preincubated for 1 hr followed by LPS treatment measured after 24 hrs relative to control; format: functional; conditions: time 25 hrs
[7] = Cytotoxicity against mouse RAW264.7 cells assessed as cell viability at 50 uM incubated for 24 hrs by CCK8 assay relative to control; format: toxicity, cell-based; conditions: read-out: Activity
[8] = Cytotoxicity against mouse RAW264.7 cells assessed as cell viability at 1 uM incubated for 24 hrs by CCK8 assay relative to control; format: toxicity, cell-based; conditions: read-out: Activity

Row | SMILES | viability at 24 h, 10 µM [1] | inhibition at 1 µM (RAW264.7 [2]) | inhibition [3] | IC50 [4] | inhibition [5] | inhibition at 10 µM (RAW264.7 [6]) | viability at 24 h, 50 µM [7] | viability at 24 h, 1 µM [8] | EC50 [4]
1 | O=C(O)CCc1c(Cl)c(O)c(O)c(O)c1Cl | 80.8% | 20.8% | 76.4% | > 5000 nM | 1% | -6.2% | 89.7% | 130% | –
2 | O=C(/C=C/c1c(Cl)c(O)c(O)c(O)c1Cl)c1ccc(Cl)c(Cl)c1 | 50% | 58.2% | -0.8% | 415 nM | -0.3% | 89.4% | 12.5% | 79.8% | –
3 | O=C(/C=C/c1c(Cl)c(O)c(O)c(O)c1Cl)c1ccc(F)cc1F | 91.8% | 35.3% | 1.1% | 131 nM | 1.1% | 79% | 65.8% | 108% | –
4 | O=C(/C=C/c1c(Cl)c(O)c(O)c(O)c1Cl)c1cccc(-c2ccc(Cl)c(Cl)c2)c1 | 29.4% | 16.6% | 79.3% | > 5000 nM | – | 70.7% | 4.2% | 69.1% | –
5 | O=C(/C=C/c1c(Cl)c(O)c(O)c(O)c1Cl)c1ccc(Cl)cc1 | 68.7% | 27% | 0.4% | 630 nM | 0.4% | 81.1% | 22.6% | 81.2% | –
6 | O=C(O)/C=C/c1c(Cl)c(O)c(O)c(O)c1Cl | 92.4% | 27% | 3.1% | 840 nM | 2.9% | -14.6% | 82.1% | 93.8% | –
7 | O=C(/C=C/c1c(Cl)c(O)c(O)c(O)c1Cl)c1ccccc1F | 84.6% | 43.7% | 2.3% | 237 nM | 3.1% | 87.3% | 72.8% | 89% | –
8 | O=C(/C=C/c1c(Cl)c(O)c(O)c(O)c1Cl)c1cccs1 | 82.8% | 35.3% | -1.8% | 216 nM | -0.9% | 76.9% | 112% | 99.1% | –
9 | O=C(O)[C@H](O)Cc1ccc(O)c(O)c1 | – | – | 5.3% | 2150 nM | – | – | – | – | > 50 µM
10 | O=C(/C=C/c1c(Cl)c(O)c(O)c(O)c1Cl)c1c(Cl)cc(F)cc1Cl | 47.2% | 54.1% | 1.3% | 403 nM | 1.1% | 83.2% | 26.3% | 100% | –
11 | Oc1cc(CCCc2ccc(F)cc2)cc(O)c1O | 108% | -45.7% | 18% | 2400 nM | 2% | -14.6% | 93.6% | 94% | –
12 | O=C(/C=C/c1c(Cl)c(O)c(O)c(O)c1Cl)c1ccc(Cl)cc1Cl | 77.2% | 31.2% | 0.6% | 306 nM | 0.6% | 87.3% | 21.8% | 81% | –
13 | O=C(O)/C=C/c1c(Cl)c(O)c(O)c(O)c1Br | 74% | 39.5% | 30.7% | 3460 nM | 1.8% | -6.2% | 92.3% | 93.6% | –
14 | O=C(/C=C/c1c(Cl)c(O)c(O)c(O)c1Cl)c1ccc(Br)cc1 | 75.7% | 5.2% | 1% | 794 nM | -0.3% | 68.6% | 12.4% | 101% | –
